From patent US20150315188A1, “COMPOUNDS AND METHODS FOR TREATMENT OF HYPERTENSION” (MEDIVATION TECHNOLOGIES, INC., priority 2012, published 2015)
Where two headings read alike, the source gives them in different places.

How the values were obtained:
Parameters in all cases: purchased Milipore (Millipore)
[1] = target: T1, Human adrenergic α2B receptor (Homo sapiens, UniProt P18089); experiment: Radioligand binding, adrenergic α2B (Protocol Group B); conditions: Protocol Group B; for Percentage inhibition of ligand binding, Adrenergic α2B (30 nM): 0.03 µM; for Ki: estimated Ki
T1 sequence (P18089 1-450): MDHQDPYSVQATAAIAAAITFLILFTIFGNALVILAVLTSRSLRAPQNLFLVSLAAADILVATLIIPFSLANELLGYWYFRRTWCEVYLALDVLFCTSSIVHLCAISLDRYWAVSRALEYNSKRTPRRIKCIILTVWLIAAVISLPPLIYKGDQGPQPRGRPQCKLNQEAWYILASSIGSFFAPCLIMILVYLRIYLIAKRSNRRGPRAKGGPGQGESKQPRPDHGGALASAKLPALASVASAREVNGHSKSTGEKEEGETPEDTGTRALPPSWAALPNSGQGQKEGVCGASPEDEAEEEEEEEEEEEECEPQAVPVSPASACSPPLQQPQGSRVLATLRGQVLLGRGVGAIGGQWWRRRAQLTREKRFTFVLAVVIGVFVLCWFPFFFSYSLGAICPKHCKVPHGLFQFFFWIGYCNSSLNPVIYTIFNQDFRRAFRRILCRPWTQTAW
Outline: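 Compounds at various concentrations in 1% DMSO were tested on recombinant membranes in Tris-HCl pH 7.4 buffer containing MgCl2, CaCl2 and 0.2% BSA.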

[2] = target: T2, Human adrenergic α1B receptor (Homo sapiens, UniProt P35368); experiment: Radioligand binding, adrenergic α1B (Protocol Group B); conditions: Protocol Group B; for Percentage inhibition of ligand binding, Adrenergic α1B (0.1 μM) / inhibition at 0.1 µM: 0.1 μM compound; for Percentage inhibition of ligand binding, Adrenergic α1B (0.3 μM) / inhibition at 0.3 µM: 0.3 μM compound; for inhibition at 0.1 µM: read-out: Percentage inhibition of ligand binding, Adrenergic α1B (0.1 μM); for inhibition at 0.3 µM: read-out: Percentage inhibition of ligand binding, Adrenergic α1B (0.3 μM)
T2 sequence (P35368 1-520): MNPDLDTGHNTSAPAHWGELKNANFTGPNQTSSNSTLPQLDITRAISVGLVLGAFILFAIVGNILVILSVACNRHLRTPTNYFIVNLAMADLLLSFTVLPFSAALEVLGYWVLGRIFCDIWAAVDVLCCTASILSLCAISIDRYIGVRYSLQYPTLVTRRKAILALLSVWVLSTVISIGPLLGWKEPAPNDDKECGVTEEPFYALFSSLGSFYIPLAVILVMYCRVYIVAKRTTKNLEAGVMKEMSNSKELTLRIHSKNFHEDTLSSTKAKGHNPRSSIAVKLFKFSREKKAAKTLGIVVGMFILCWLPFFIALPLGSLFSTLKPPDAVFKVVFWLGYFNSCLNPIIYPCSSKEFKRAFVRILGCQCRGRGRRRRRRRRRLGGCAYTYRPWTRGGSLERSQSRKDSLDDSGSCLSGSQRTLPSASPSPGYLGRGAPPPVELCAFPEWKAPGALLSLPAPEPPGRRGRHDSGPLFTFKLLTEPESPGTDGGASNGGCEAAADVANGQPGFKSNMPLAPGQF
Outline: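 Values are percent inhibition of specific [3H]prazosin (0.3 nM) binding or estimated Ki, from filtration counting. Human α1B recombinant membranes, Tris-HCl pH 7.4 buffer with MgCl2 and EDTA, 60 min at 25 °C, 1% DMSO vehicle; 10 μM prazosin defined nonspecific binding.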

[3] = target: T3, Human adrenergic α2A receptor (Homo sapiens, UniProt P08913); experiment: Radioligand binding, adrenergic α2A (Protocol Group B); conditions: Protocol Group B; for Percentage inhibition of ligand binding, Adrenergic α2A (0.1 μM) / inhibition at 0.1 µM: 0.1 μM compound; for Percentage inhibition of ligand binding, Adrenergic α2A (0.3 μM) / inhibition at 0.3 µM: 0.3 μM compound; for inhibition at 0.1 µM: read-out: Percentage inhibition of ligand binding, Adrenergic α2A (0.1 μM); for inhibition at 0.3 µM: read-out: Percentage inhibition of ligand binding, Adrenergic α2A (0.3 μM)
T3 sequence (P08913 1-465): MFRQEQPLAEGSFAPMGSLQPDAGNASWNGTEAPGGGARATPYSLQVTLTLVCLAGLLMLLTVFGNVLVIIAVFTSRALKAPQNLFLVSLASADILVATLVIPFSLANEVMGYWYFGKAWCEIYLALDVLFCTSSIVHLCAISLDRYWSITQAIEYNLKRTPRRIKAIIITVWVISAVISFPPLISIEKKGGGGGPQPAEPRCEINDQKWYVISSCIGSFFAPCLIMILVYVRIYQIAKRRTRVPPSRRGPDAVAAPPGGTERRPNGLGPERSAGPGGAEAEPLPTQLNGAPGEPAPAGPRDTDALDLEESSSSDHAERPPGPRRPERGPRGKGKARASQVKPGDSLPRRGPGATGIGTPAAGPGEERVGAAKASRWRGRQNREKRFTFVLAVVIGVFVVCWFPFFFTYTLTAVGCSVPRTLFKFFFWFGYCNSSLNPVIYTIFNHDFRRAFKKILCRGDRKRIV
Outline: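 Compounds (1% DMSO vehicle, various concentrations) competed against 2 nM [^3H]MK-912 on recombinant receptor membranes for 60 min at 25° C, Tris-HCl pH 7.4 buffer with Mg2+, Ca2+, BSA. Bound radioligand filtered and counted; 10 μM rauwolscine set nonspecific binding. Values: percent inhibition of specific binding or estimated Ki.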

[4] = 10 nM compound, read-out: Percentage inhibition of ligand binding, Adrenergic α2B (10 nM)

Percentage inhibition of ligand binding, Adrenergic α2B (10 nM) ([1]; 10 nM compound, 0.01 µM) [%] | Percentage inhibition of ligand binding, Adrenergic α2B (30 nM) ([1]; 30 nM compound) [%] | Percentage inhibition of ligand binding, Adrenergic α2B (0.1 μM) ([1]; 0.1 μM compound) [%] | Percentage inhibition of ligand binding, Adrenergic α1B (0.1 μM) [2] [%] | Percentage inhibition of ligand binding, Adrenergic α1B (0.3 μM) [2] [%] | Percentage inhibition of ligand binding, Adrenergic α2A (0.1 μM) [3] [%] | Percentage inhibition of ligand binding, Adrenergic α2A (0.3 μM) [3] [%] | SMILES | further results
74 | 91 | 97 | 4 | 33 | 34 | 54 | CC(O)(Cn1c2c(c3cc(Cl)cc(F)c31)C1CCCN1CC2)c1cccnc1 (single isomer, unassigned) [53b] | Ki ([1]; read-out: Ki α2B): 1.8 nM
4 | −11 | 17 | 0 | 11 | −11 | 6 | CC(O)(Cn1c2c(c3cc(F)ccc31)C1CCCN1CC2)c1ccncc1 (single isomer, unassigned) [31d] | 
 | 9 |  | 0 |  | 3 |  | Cc1cc(F)cc2c3c(n(CC(O)c4ccncc4)c12)CCN1CCCC31 (single isomer, unassigned) [136c] | 
 | 22 |  | 28 |  | 15 |  | Cc1ccc2c(c1)c1c(n2CC(C)(O)c2ccc(F)cc2)CN2CCC1C2 (single isomer, unassigned) [134d] | 
 | −2 | 45 | 1 | −4 | 0 | −21 | CC(O)(Cn1c2c(c3cc(F)ccc31)C1CCCN1CC2)c1ccncc1 (single isomer, unassigned) [31c] | inhibition at 0.01 µM [1, 4]: 3%
−4 | 4 | 1 | 1 | −6 | −10 | −15 | CC(O)(Cn1c2c(c3cc(Cl)cc(F)c31)C1CCCN1CC2)c1cccnc1 (single isomer, unassigned) [53c] | 
 |  |  |  |  |  |  | Cc1ccc2c(c1)c1c(n2CC(O)c2cccnc2)C(O)CN(C)C1 (stereo not shown) [compound 24, 5-(2-Hydroxy-2-pyridin-3-yl-ethyl)-2,8-dimethyl-2,3,4,5-tetrahydro-1H-pyrido[4,3-b]indol-4-ol] | inhibition at 0.01 µM [1, 4]: -25%; inhibition at 0.03 µM ([1]; 30 nM compound, read-out: Percentage inhibition of ligand binding, Adrenergic α2B (30 nM)): 0%; inhibition at 0.1 µM ([1]; 0.1 μM compound, read-out: Percentage inhibition of ligand binding, Adrenergic α2B (0.1 μM)): 29%; inhibition at 0.1 µM [2]: -3%; inhibition at 0.3 µM [2]: 15%; inhibition at 0.1 µM [3]: -15%; inhibition at 0.3 µM [3]: 4%
45 | 69 | 86 | −8 | 4 | 13 | 34 | CC(O)(Cn1c2c(c3cc(F)ccc31)C1CCCN1CC2)c1cccnc1 (stereo not shown) [51b] | 
54 | 81 | 95 | 20 | 51 | 12 | 38 | OC(Cn1c2c(c3cc(F)ccc31)C1CCCN1CC2)c1ccncc1 (stereo not shown) [compound 18, 2-(10-fluoro-2,3,5,6-tetrahydro-1H-indolizino[7,8-b]indol-7 (11cH)-yl)-1-(pyridin-4-yl)ethanol] | 
 |  |  |  |  |  |  | Cc1ccc2c(c1)c1c(n2CC(C)(O)c2cccnc2)CC2CCC1N2C (single isomer, unassigned) [101a] | Ki ([1]; Ki α2B): 16.2 nM; inhibition at 0.01 µM ([1]; read-out: Percentage inhibition of ligand binding, Adrenergic α2B (10 nM), 10 nM compound): 23%; inhibition at 0.03 µM ([1]; read-out: Percentage inhibition of ligand binding, Adrenergic α2B (30 nM), 30 nM compound): 38%; inhibition at 0.1 µM ([1]; read-out: Percentage inhibition of ligand binding, Adrenergic α2B (0.1 μM), 0.1 μM compound): 71%; inhibition at 0.1 µM [2]: 6%; inhibition at 0.3 µM [2]: 17%; inhibition at 0.1 µM [3]: 7%; inhibition at 0.3 µM [3]: 21%
 | 11 | 10 | −6 | 0 | 7 | 12 | CC(O)(Cn1c2c(c3cc(Cl)cc(F)c31)C1CCCN1CC2)c1ccncc1 (single isomer, unassigned) [52c] | Percentage inhibition of ligand binding, Adrenergic α2B (10 nM) ([1]; 10 nM compound): 9%
−8 | −10 | 0 | 1 | −5 | −12 | 1 | Cc1ccc2c(c1)c1c(n2CC(C)(O)c2cccnc2)CC2CCCN2C1 (stereo not shown) [41c] | 

SMILES | Percentage inhibition of ligand binding, Adrenergic α2B (10 nM) ([1]; 10 nM compound, 0.01 µM) [%] | Percentage inhibition of ligand binding, Adrenergic α2B (30 nM) ([1]; 30 nM compound) [%] | Percentage inhibition of ligand binding, Adrenergic α2B (0.1 μM) ([1]; 0.1 μM compound) [%] | Percentage inhibition of ligand binding, Adrenergic α1B (0.1 μM) [2] [%] | Percentage inhibition of ligand binding, Adrenergic α1B (0.3 μM) [2] [%] | Percentage inhibition of ligand binding, Adrenergic α2A (0.1 μM) [3] [%] | Percentage inhibition of ligand binding, Adrenergic α2A (0.3 μM) [3] [%] | further results
Cc1ccc2c(c1)c1c(n2CC(C)(O)c2cccnc2)CC2CCC1N2C (single isomer, unassigned) [101c] | 7 | 5 | 16 | 12 | 7 | 6 | 7 | 
